The record followed here is doi:10.1101/2025.01.28.635346v1 (bioRxiv, 2025).

Bridge positions count the residues as written; N and C are the ends. Side chains are listed from the residue outwards. Peptide text beside a SMILES is read from it. * marks the point of attachment. Butanoyl(4-(4-I-phenyl)) = O=C(CCCc1ccc(I)cc1)*; PEG2 = NCCOCCOCCC(=O)O

A word on the IC50: it is the concentration that gives 50% inhibition.

For assay [1], the target named is T1, integrin αvβ6 (Homo sapiens, UniProt P06756+P18564). The experiment in a line: AlphaLISA competition assay vs LAP, biotinylated αvβ6. In kind it is binding. (In general: In Alpha technology, singlet oxygen from a donor bead excites a nearby acceptor bead.)
Assay [2] concerns the target T2, integrin αvβ3 (Homo sapiens, UniProt P05106+P06756). Nature of the assay: AlphaLISA competition assay vs LAP, biotinylated αvβ3. The assay is classed as binding.
Assay [3] concerns the target T3, integrin αvβ8 (Homo sapiens, UniProt P06756+P26012). Nature of the assay: AlphaLISA competition assay vs LAP, biotinylated αvβ8. In kind it is binding.
Assay [4] addresses T3, integrin αvβ8. The experiment in a line: ELISA competition assay, integrin αvβ8 binding to LAP.
The target of assay [5] is T4, integrin αIIbβ3 (Homo sapiens, UniProt P05106+P08514).
T4 sequence (P08514 32-993 limits assumed): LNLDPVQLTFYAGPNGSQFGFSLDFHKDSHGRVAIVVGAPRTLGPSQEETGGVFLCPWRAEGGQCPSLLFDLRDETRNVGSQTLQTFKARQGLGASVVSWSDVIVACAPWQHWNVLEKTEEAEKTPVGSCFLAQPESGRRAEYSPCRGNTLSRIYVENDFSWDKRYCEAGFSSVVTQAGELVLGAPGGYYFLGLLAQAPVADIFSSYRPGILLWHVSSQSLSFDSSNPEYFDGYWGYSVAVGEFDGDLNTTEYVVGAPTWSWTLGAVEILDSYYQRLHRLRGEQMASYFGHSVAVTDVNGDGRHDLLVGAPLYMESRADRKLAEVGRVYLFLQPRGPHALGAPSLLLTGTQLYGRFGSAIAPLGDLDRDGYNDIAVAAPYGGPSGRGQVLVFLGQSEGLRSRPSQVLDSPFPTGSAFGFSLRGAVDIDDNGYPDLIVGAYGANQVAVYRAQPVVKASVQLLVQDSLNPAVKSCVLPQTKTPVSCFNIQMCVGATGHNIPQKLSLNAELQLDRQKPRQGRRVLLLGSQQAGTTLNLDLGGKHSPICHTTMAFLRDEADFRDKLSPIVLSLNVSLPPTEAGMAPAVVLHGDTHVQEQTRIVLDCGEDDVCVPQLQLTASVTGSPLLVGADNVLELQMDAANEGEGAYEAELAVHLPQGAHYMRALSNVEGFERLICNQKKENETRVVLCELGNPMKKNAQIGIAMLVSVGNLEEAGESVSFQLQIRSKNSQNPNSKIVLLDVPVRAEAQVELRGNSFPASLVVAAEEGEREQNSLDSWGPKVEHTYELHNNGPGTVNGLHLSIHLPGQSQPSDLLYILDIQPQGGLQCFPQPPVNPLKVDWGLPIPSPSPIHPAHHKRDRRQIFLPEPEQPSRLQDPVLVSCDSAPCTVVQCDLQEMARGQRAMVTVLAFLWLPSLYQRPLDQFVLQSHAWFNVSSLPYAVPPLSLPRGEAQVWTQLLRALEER
T4 sequence (P05106 27-718 limits assumed): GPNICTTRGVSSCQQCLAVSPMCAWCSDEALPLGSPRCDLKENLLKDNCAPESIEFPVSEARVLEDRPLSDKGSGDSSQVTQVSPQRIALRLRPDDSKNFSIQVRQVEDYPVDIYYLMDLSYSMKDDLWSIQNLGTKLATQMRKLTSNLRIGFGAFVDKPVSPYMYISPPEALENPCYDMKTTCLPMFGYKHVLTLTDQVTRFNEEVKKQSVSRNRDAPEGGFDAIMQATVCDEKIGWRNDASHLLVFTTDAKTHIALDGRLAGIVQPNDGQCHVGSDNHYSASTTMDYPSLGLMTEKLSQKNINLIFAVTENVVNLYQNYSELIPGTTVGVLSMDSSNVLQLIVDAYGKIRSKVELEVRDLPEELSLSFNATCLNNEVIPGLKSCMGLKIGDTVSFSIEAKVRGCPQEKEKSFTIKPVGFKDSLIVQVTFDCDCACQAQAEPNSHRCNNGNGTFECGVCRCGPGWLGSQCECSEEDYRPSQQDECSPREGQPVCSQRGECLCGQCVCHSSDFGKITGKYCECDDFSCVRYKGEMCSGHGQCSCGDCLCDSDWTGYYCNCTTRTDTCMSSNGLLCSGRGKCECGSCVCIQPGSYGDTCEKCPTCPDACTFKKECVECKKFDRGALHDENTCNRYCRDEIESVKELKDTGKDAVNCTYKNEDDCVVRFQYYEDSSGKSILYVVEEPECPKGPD
The experiment in a line: ELISA competition assay, integrin αIIbβ3. The assay is classed as binding.

Assay [6] has as its target T2, integrin αvβ3. Nature of the assay: ELISA competition assay, integrin αvβ3. In kind it is binding. (An ELISA detects its analyte on a solid surface through an enzyme-linked reagent.)
Assay [7] concerns the target T1, integrin αvβ6. The experiment in a line: ELISA competition assay, integrin αvβ6 binding to LAP. The settings on record: αvβ6 IC50, ELISA competition vs LAP; mean, n ≥ 3.
Assay [8] addresses integrin α5β1 (Homo sapiens, UniProt P05556+P08648). Nature of the assay: ELISA competition assay, integrin α5β1. In kind it is binding.
Assay [9] concerns the target integrin αvβ5 (Homo sapiens, UniProt P06756+P18084). The experiment in a line: ELISA competition assay, integrin αvβ5. The assay is classed as binding.
The target of assay [10] is integrin α8β1 (Homo sapiens, UniProt P05556+P53708). Nature of the assay: ELISA competition assay, integrin α8β1. In kind it is binding.
Assay [11] addresses integrin αvβ1 (Homo sapiens, UniProt P05556+P06756). Nature of the assay: ELISA competition assay, integrin αvβ1. In kind it is binding.

For `CC[C@H](C)[C@H](NC(=O)[C@@H]1CCCN1C(=O)[C@H](Cc1ccccc1)NC(=O)[C@H](CC(=O)O)NC(=O)CNC(=O)[C@H](CCCNC(=N)N)NC(=O)[C@@H](NC(=O)[C@H](Cc1ccccc1)NC(=O)[C@H](Cc1ccc(O)cc1)NC(=O)[C@@H]1CCC(=O)NCC(=O)NCC(=O)N[C@@H](C)C(=O)NCC(=O)N[C@@H](Cc2c[nH]cn2)C(=O)N[C@@H](C(C)C)C(=O)N2CCC[C@H]2C(=O)N1)C(C)C)C(=O)N[C@@H](CO)C(=O)N[C@@H](Cc1ccccc1)C(=O)N[C@@H](Cc1ccc(O)cc1)C(=O)NCC(=O)O` [lassotide 3] (GGAGHVPEYFVRGDFPISFYG-OH; lactam N-8; C-terminus assumed), the IC50 amounted to 253 nM in assay [1], 1 nM in [2] and 295 nM in [3].
On to `CC(C)C[C@H](NC(=O)[C@H](CC(=O)O)NC(=O)CNC(=O)[C@H](CCCNC(=N)N)NC(=O)[C@@H](NC(=O)[C@H](Cc1ccccc1)NC(=O)[C@H](Cc1ccc(O)cc1)NC(=O)[C@@H]1CCC(=O)NCC(=O)NCC(=O)N[C@@H](CCCCNC(=O)CCOCCOCCNC(=O)CCCc2ccc(I)cc2)C(=O)NCC(=O)N[C@@H](Cc2c[nH]cn2)C(=O)N[C@@H](C(C)C)C(=O)N2CCC[C@H]2C(=O)N1)C(C)C)C(=O)N[C@@H](CCC(N)=O)C(=O)N[C@@H](CO)C(=O)N[C@@H](Cc1ccccc1)C(=O)N[C@@H](Cc1ccc(O)cc1)C(=O)NCC(=O)O` [lassotide 48] (GGK([PEG2-Butanoyl(4-(4-I-phenyl))])GHVPEYFVRGDLQSFYG-OH; lactam N-8; C-terminus assumed), for which the IC50 was 0.8 nM in assay [4]; 446 nM in assay [5]; 315 nM in assay [6]; 0.7 nM in assay [7]; 2590 nM in [8]; over 10000 nM in assay [9]. For the same compound, the IC50 was over 10000 nM in [10] and 46 nM in assay [11].
`CC[C@H](C)[C@H](NC(=O)CNC(=O)[C@@H](NC(=O)[C@H](Cc1ccccc1)NC(=O)[C@H](Cc1ccc(O)cc1)NC(=O)[C@@H]1CCC(=O)NCC(=O)NCC(=O)N[C@@H](C)C(=O)NCC(=O)N[C@@H](Cc2cnc[nH]2)C(=O)N[C@@H](C(C)C)C(=O)N2CCC[C@H]2C(=O)N1)C(C)C)C(=O)NCC(=O)N[C@H](C(=O)N1CCC[C@H]1C(=O)N[C@H](C(=O)N[C@@H](CO)C(=O)N[C@@H](Cc1ccccc1)C(=O)N[C@@H](Cc1ccc(O)cc1)C(=O)NCC(=O)O)[C@@H](C)CC)[C@@H](C)O` [lassotide 1, MccJ25, reference compound] (GGAGHVPEYFVGIGTPISFYG-OH; lactam N-8): the IC50 in assay [1], in [2] and in assay [3] was over 10000 nM throughout.
`CC[C@H](C)[C@H](NC(=O)[C@@H]1CCCN1C(=O)[C@H](CC(C)C)NC(=O)[C@H](CC(=O)O)NC(=O)[C@@H]1CCCN1C(=O)[C@H](CCCNC(=N)N)NC(=O)[C@@H](NC(=O)[C@H](Cc1ccccc1)NC(=O)[C@H](Cc1ccc(O)cc1)NC(=O)[C@@H]1CCC(=O)NCC(=O)NCC(=O)N[C@@H](C)C(=O)NCC(=O)N[C@@H](Cc2c[nH]cn2)C(=O)N[C@@H](C(C)C)C(=O)N2CCC[C@H]2C(=O)N1)C(C)C)C(=O)N[C@@H](CO)C(=O)N[C@@H](Cc1ccccc1)C(=O)N[C@@H](Cc1ccc(O)cc1)C(=O)NCC(=O)O` [lassotide 10] (GGAGHVPEYFVRPDLPISFYG-OH; lactam N-8; C-terminus assumed): the IC50 in assay [1], in [2] and in assay [3] was over 10000 nM in each case.
As to `CC[C@H](C)[C@H](NC(=O)CNC(=O)[C@@H](NC(=O)[C@H](Cc1ccccc1)NC(=O)[C@H](Cc1ccc(O)cc1)NC(=O)[C@@H]1CCC(=O)NCC(=O)NCC(=O)N[C@@H](CCCNC(=N)N)C(=O)NCC(=O)N[C@@H](CC(=O)O)C(=O)N[C@@H](CC(C)C)C(=O)N2CCC[C@H]2C(=O)N1)C(C)C)C(=O)NCC(=O)N[C@H](C(=O)N1CCC[C@H]1C(=O)N[C@H](C(=O)N[C@@H](CO)C(=O)N[C@@H](Cc1ccccc1)C(=O)N[C@@H](Cc1ccc(O)cc1)C(=O)NCC(=O)O)[C@@H](C)CC)[C@@H](C)O` [lassotide 11] (GGRGDLPEYFVGIGTPISFYG-OH; lactam N-8; C-terminus assumed), the IC50 in assay [1], in assay [2] and in assay [3] was over 10000 nM in each case.
Regarding `CC[C@H](C)[C@H](NC(=O)[C@@H]1CCCN1C(=O)[C@@H](NC(=O)[C@H](CCCNC(=N)N)NC(=O)CNC(=O)[C@H](CC(=O)O)NC(=O)[C@H](CC(C)C)NC(=O)[C@H](Cc1ccccc1)NC(=O)[C@H](Cc1ccc(O)cc1)NC(=O)[C@@H]1CCC(=O)NCC(=O)NCC(=O)N[C@@H](C)C(=O)NCC(=O)N[C@@H](Cc2c[nH]cn2)C(=O)N[C@@H](C(C)C)C(=O)N2CCC[C@H]2C(=O)N1)[C@@H](C)O)C(=O)N[C@@H](CO)C(=O)N[C@@H](Cc1ccccc1)C(=O)N[C@@H](Cc1ccc(O)cc1)C(=O)NCC(=O)O` [lassotide 9] (GGAGHVPEYFLDGRTPISFYG-OH; lactam N-8; C-terminus assumed), the half-maximal inhibitory concentration (IC50) in assay [1] is over 10000 nM; in assay [2], over 10000 nM; in assay [3], 1300 nM.
On to `CC[C@H](C)[C@H](NC(=O)[C@H](CC(C)C)NC(=O)[C@H](CC(=O)O)NC(=O)CNC(=O)[C@H](CCCNC(=N)N)NC(=O)CNC(=O)[C@@H](NC(=O)[C@H](Cc1ccccc1)NC(=O)[C@H](Cc1ccc(O)cc1)NC(=O)[C@@H]1CCC(=O)NCC(=O)NCC(=O)N[C@@H](C)C(=O)NCC(=O)N[C@@H](Cc2c[nH]cn2)C(=O)N[C@@H](C(C)C)C(=O)N2CCC[C@H]2C(=O)N1)C(C)C)C(=O)N[C@@H](CO)C(=O)N[C@@H](Cc1ccccc1)C(=O)N[C@@H](Cc1ccc(O)cc1)C(=O)NCC(=O)O` [lassotide 8] (GGAGHVPEYFVGRGDLISFYG-OH; lactam N-8; C-terminus assumed), for which the IC50 in assay [1] worked out at 478 nM; in assay [2], 2560 nM; in assay [3], 466 nM.
On the same counts, the results for `CC[C@H](C)[C@H](NC(=O)[C@@H]1CCCN1C(=O)[C@@H](NC(=O)[C@H](CC(C)C)NC(=O)[C@H](CC(=O)O)NC(=O)CNC(=O)[C@H](CCCNC(=N)N)NC(=O)[C@H](Cc1ccccc1)NC(=O)[C@H](Cc1ccc(O)cc1)NC(=O)[C@@H]1CCC(=O)NCC(=O)NCC(=O)N[C@@H](C)C(=O)NCC(=O)N[C@@H](Cc2c[nH]cn2)C(=O)N[C@@H](C(C)C)C(=O)N2CCC[C@H]2C(=O)N1)[C@@H](C)O)C(=O)N[C@@H](CO)C(=O)N[C@@H](Cc1ccccc1)C(=O)N[C@@H](Cc1ccc(O)cc1)C(=O)NCC(=O)O` [lassotide 7] (GGAGHVPEYFRGDLTPISFYG-OH; lactam N-8; C-terminus assumed) are 2040 nM, 571 nM and 485 nM.
